Data from patent publication US7407940B2, “Antimicrobial hexapeptides” (Helix BioMedix Inc., priority 2005, dated 2008).
Values after ≈ are worked out from the molar mass of the structure shown. Where two headings read alike, the source gives them in different places. Where a SMILES comes first, the peptide text is derived from it. Where no end group is shown, it is not given here. [ ]: non-standard residue; d: D form. The star is where a group is joined. Oleoyl = CCCCCCCC/C=C\CCCCCCCC(=O)*; Stearoyl = CCCCCCCCCCCCCCCCCC(=O)*; Palmitoyl = CCCCCCCCCCCCCCCC(=O)*; Undecanoyl = CCCCCCCCCCC(=O)*; Nonanoyl = CCCCCCCCC(=O)*; Octanoyl = CCCCCCCC(=O)*; Cap = not defined here

Columns and labels:
[1] = tested on: Salmonella typhimurium 14028S; test: MIC, broth microdilution, S. typhimurium; format: cell-based; set-up: unit not given here; settings: for Anti-microbial activity (MIC): S. typhimurium 14028S; for MIC, lipid length SAR: S.typhimurium
Protocol: (§1) MICs (minimal inhibitory concentrations) were determined for the hexapeptides of interest using a slightly modified version of the NCCLS (National Committee for Clinical Laboratory Standards) broth microdilution method as described previously (Steinberg et al., AAC 41: 1738, 1997). Briefly, antimicrobial agents were prepared as 10× concentrates in the most appropriate solvent. For the hexapeptide, 0.01% acetic acid containing 0.2% bovine serum albumin as a carrier protein was used. Inocula were prepared by resuspending colonies from a BAP (please spell out this term) in medium and adjusting the suspension to match that of a 0.5 McFarland standard. The suspension was diluted into fresh medium (as recommended by NCCLS for the organism) to give 2×10^5 to 7×10^5 CFU/ml for bacteria or 2×10^3 to 7×10^3 CFU/ml for Candida. After dispensing 100 μl aliquots of the microbial suspension into each well of a 96-well polypropylene microtiter plate, 11 μl of test compound was added. The MIC was defined as the lowest concentration of drug which prevented visible turbidity after 16 to 20 hours (bacteria) or 46 to 50 hours (Candida) at 35° C.

Escherichia coli UB1005 = test: MIC, broth microdilution, E. coli; format: cell-based; set-up: unit not given here
Protocol: as §1

Candida albicans = format: cell-based
Protocol: as §1

Pseudomonas aeruginosa = format: cell-based; set-up: MIC, lipid length SAR: unit not given here; settings: for MIC, lipid length SAR: P.aeruginosa
Protocol: as §1

P. acnes = test: Activity against extended panel of P. acnes; format: cell-based; set-up: unit not given here
From the text: A very promising application for short bioactive peptides is for dermatological indications such as acne.

MRSA = test: Kill curve in 10% sheep serum-phosphate buffer against MRSA; format: cell-based, S. aureus; settings: 10% serum / biological environments
[2] = T.W. Candida #184, azole resistant clinical isolate
[3] = T.W. Candida #185 (CDR1,2), azole resistant clinical isolate
[4] = T.W. Candida #186 (CDR1,2), azole resistant clinical isolate
[5] = T.W. Candida #187 (CDR1,2), azole resistant clinical isolate
[6] = T.W. Candida #192 (CDR1,2), azole resistant clinical isolate
[7] = T.W. Candida #193, azole resistant clinical isolate
[8] = T.W. Candida #194, azole resistant clinical isolate
[9] = T.W. Candida #195, azole resistant clinical isolate
[10] = T.W. Candida #196 (CDR1,2), azole resistant clinical isolate
[11] = T.W. Candida #197, azole resistant clinical isolate
[12] = T.W. Candida #198, azole resistant clinical isolate
[13] = T.W. Candida #199 (CDR1,2), azole resistant clinical isolate

Compound	Anti-microbial activity (MIC) [1]	Anti-microbial activity (MIC) (Escherichia coli UB1005)	other results
KPVKFK-NH2 [SEQ ID NO: 31]	>128	>128	
CCCCCCCCCCC(=O)N[C@@H](CCCCN)C(=O)N[C@@H](Cc1ccccc1)C(=O)N[C@@H](CCCCN)C(=O)N[C@@H](Cc1c[nH]c2ccccc12)C(=O)N1CCC[C@H]1C(=O)N[C@@H](Cc1c[nH]c2ccccc12)C(N)=O [compound 79] (Undecanoyl-KFKWPW-NH2)			Minimal Inhibitory Concentrations (Mics) (Candida albicans): 4-8 Mg/Ml; Minimal Inhibitory Concentrations (Mics) (Pseudomonas aeruginosa): 8-16 Mg/Ml
KFFWPF-NH2 [SEQ ID NO: 36]	>128	>128	
H-RWRWPW-NH2 [compound 4]			Minimal Inhibitory Concentrations (Mics) (Candida albicans): 64-128 Mg/Ml
FALKKL-NH2 [SEQ ID NO: 14]	>128	>128	
LLKWPW-NH2 [SEQ ID NO: 33]	>128	>128	
KPWKFK-NH2 [SEQ ID NO: 29]	>128	>128	
FAKLAK-NH2 [SEQ ID NO: 20]	>128	>128	
OIe-KFKWPW-NH2 (Oleoyl-KFKWPW-NH2; SMILES CCCCCCCC/C=C\CCCCCCCC(=O)N[C@@H](CCCCN)C(=O)N[C@@H](Cc1ccccc1)C(=O)N[C@@H](CCCCN)C(=O)N[C@@H](Cc1c[nH]c2ccccc12)C(=O)N1CCC[C@H]1C(=O)N[C@@H](Cc1c[nH]c2ccccc12)C(N)=O) [SEQ ID NO: 75]			MIC, lipid length SAR [1]: >128; MIC, lipid length SAR (Pseudomonas aeruginosa): >128
VKVKPV-NH2 [SEQ ID NO: 13]	>128	>128	
Oct-kfkwpw-HN2 (Octanoyl-[dK][dF][dK][dW][dP][dW]-NH2; SMILES CCCCCCCC(=O)N[C@H](CCCCN)C(=O)N[C@H](Cc1ccccc1)C(=O)N[C@H](CCCCN)C(=O)N[C@H](Cc1c[nH]c2ccccc12)C(=O)N1CCC[C@@H]1C(=O)N[C@H](Cc1c[nH]c2ccccc12)C(N)=O) [SEQ ID NO: 81]			Activity (MIC) against P. acnes (P. acnes; ATCC 6921): 4; Activity (MIC) against P. acnes (P. acnes; ATCC 6922): 8; Activity (MIC) against P. acnes (P. acnes; ATCC 6923): 8; Activity (MIC) against P. acnes (P. acnes; ATCC 11828): 8; Activity (MIC) against P. acnes (P. acnes; ATCC 12930): 2; Activity (MIC) against P. acnes (P. acnes; ATCC 25746): 0.25; Activity (MIC) against P. acnes (P. acnes; ATCC 29399): 8; Activity (MIC) against P. acnes (P. acnes; ATCC 33179): 16; Activity (MIC) against P. acnes (P. acnes; ATCC 49929): 0.125; Activity (MIC) against P. acnes (P. acnes; ATCC 51277): 8
VAKLAK-NH2 [SEQ ID NO: 19]	>128	>128	
KLAKLL-NH2 [SEQ ID NO: 27]	>128	>128	
Cap-KFKWPW-NH2 (not fully specified; printed as Cap-KFKWPW-NH2; reading uncertain) [SEQ ID NO: 71]			MIC, lipid length SAR [1]: 128; MIC, lipid length SAR (Pseudomonas aeruginosa): >128
CC(=O)N1CCN(c2ccc(OCC3COC(Cn4ccnc4)(c4ccc(Cl)cc4Cl)O3)cc2)CC1 (centres unmarked) [Ketoconazole, reference compound]			MIC (Candida albicans; [2]): 64 µg/mL (≈ 120 µM); MIC (Candida albicans; [3]): 8 µg/mL (≈ 15.1 µM); MIC (Candida albicans; [4]): 8 µg/mL (≈ 15.1 µM); MIC (Candida albicans; [5]): 16 µg/mL (≈ 30.1 µM); MIC (Candida albicans; [6]): 32 µg/mL (≈ 60.2 µM); MIC (Candida albicans; [7]): 8 µg/mL (≈ 15.1 µM); MIC (Candida albicans; [8]): 16 µg/mL (≈ 30.1 µM); MIC (Candida albicans; [9]): 128 µg/mL (≈ 241 µM); MIC (Candida albicans; [10]): 32 µg/mL (≈ 60.2 µM); MIC (Candida albicans; [11]): > 256 µg/mL; MIC (Candida albicans; [12]): 1 µg/mL (≈ 1.88 µM); MIC (Candida albicans; [13]): 16 µg/mL (≈ 30.1 µM)
Ste-KFKWPW-NH2 (Stearoyl-KFKWPW-NH2; SMILES CCCCCCCCCCCCCCCCCC(=O)N[C@@H](CCCCN)C(=O)N[C@@H](Cc1ccccc1)C(=O)N[C@@H](CCCCN)C(=O)N[C@@H](Cc1c[nH]c2ccccc12)C(=O)N1CCC[C@H]1C(=O)N[C@@H](Cc1c[nH]c2ccccc12)C(N)=O) [SEQ ID NO: 74]			MIC, lipid length SAR [1]: >128; MIC, lipid length SAR (Pseudomonas aeruginosa): >128
KPVWPW-NH2 [SEQ ID NO: 30]	>128	>128	
FPWKFK-NH2 [SEQ ID NO: 34]	>128	>128	

Compound	Anti-microbial activity (MIC) [1]	Anti-microbial activity (MIC) (Escherichia coli UB1005)	other results
KFKSFK-NH2 [SEQ ID NO: 21]	>128	>128	
KFVWPW-NH2 [SEQ ID NO: 32]	>128	>128	
KWKVFK-NH2 [SEQ ID NO: 24]	>128	>128	
Pal-KFKWPW-NH2 (Palmitoyl-KFKWPW-NH2; SMILES CCCCCCCCCCCCCCCC(=O)N[C@@H](CCCCN)C(=O)N[C@@H](Cc1ccccc1)C(=O)N[C@@H](CCCCN)C(=O)N[C@@H](Cc1c[nH]c2ccccc12)C(=O)N1CCC[C@H]1C(=O)N[C@@H](Cc1c[nH]c2ccccc12)C(N)=O) [SEQ ID NO: 73]			MIC, lipid length SAR [1]: >128; MIC, lipid length SAR (Pseudomonas aeruginosa): >128
Clc1ccc(COC(Cn2ccnc2)c2ccc(Cl)cc2Cl)c(Cl)c1 (centres unmarked) [Miconazole, reference compound]			MIC (Candida albicans; [2]): > 256 µg/mL; MIC (Candida albicans; [3]): > 256 µg/mL; MIC (Candida albicans; [4]): > 256 µg/mL; MIC (Candida albicans; [5]): > 256 µg/mL; MIC (Candida albicans; [6]): > 256 µg/mL; MIC (Candida albicans; [7]): > 256 µg/mL; MIC (Candida albicans; [8]): > 256 µg/mL; MIC (Candida albicans; [9]): > 256 µg/mL; MIC (Candida albicans; [10]): 128 µg/mL (≈ 308 µM); MIC (Candida albicans; [11]): > 256 µg/mL; MIC (Candida albicans; [12]): 128 µg/mL (≈ 308 µM); MIC (Candida albicans; [13]): > 256 µg/mL
FKLAPW-NH2 [SEQ ID NO: 16]	>128	>128	
FRHFRW-NH2 [SEQ ID NO: 18]	>128	>128	
KWKKPV-NH2 [SEQ ID NO: 17]	>128	>128	
CCCCCCCCC(=O)N[C@@H](CCCCN)C(=O)N[C@@H](Cc1ccccc1)C(=O)N[C@@H](CCCCN)C(=O)N[C@@H](Cc1c[nH]c2ccccc12)C(=O)N1CCC[C@H]1C(=O)N[C@@H](Cc1c[nH]c2ccccc12)C(N)=O [compound 70] (Nonanoyl-KFKWPW-NH2)			Minimal Inhibitory Concentrations (Mics) (Pseudomonas aeruginosa): 32-64 Mg/Ml
KWKFKF-NH2 [SEQ ID NO: 23]	>128	>128	
SEQ ID NO:56 (Octanoyl-KWKWFW-NH2; SMILES CCCCCCCC(=O)N[C@@H](CCCCN)C(=O)N[C@@H](Cc1c[nH]c2ccccc12)C(=O)N[C@@H](CCCCN)C(=O)N[C@@H](Cc1c[nH]c2ccccc12)C(=O)N[C@@H](Cc1ccccc1)C(=O)N[C@@H](Cc1c[nH]c2ccccc12)C(N)=O)			ability to kill S. aureus in serum (in words) (MRSA): does not perform well in biological environments
KWKKLA-NH2 [SEQ ID NO: 22]	>128	>128	
LAKLAK-NH2 [SEQ ID NO: 28]	>128	>128	
FKFKPV-NH2 [SEQ ID NO: 12]	>128	>128	
VAKKWK-NH2 [SEQ ID NO: 25]	>128	>128	
KPVWPF-NH2 [SEQ ID NO: 35]	>128	>128	
RKTWPW-NH2 [SEQ ID NO: 15]	>128	>128	
